Assay results taken from ChEMBL document CHEMBL1154920, “Rare casbane diterpenoids from the Hainan soft coral Sinularia depressa” (J Nat Prod, 2010).

Experiments:
Escherichia coli = test: Antibacterial activity against Escherichia coli by broth macrodilution method; assay type: functional, organism-based
Staphylococcus aureus = test: Antibacterial activity against Staphylococcus aureus by broth macrodilution method; assay type: functional, organism-based
SW1990 = test: Cytotoxicity against human SW1990 cells after 72 hrs by MTT assay; assay type: functional, cell-based; conditions: SW1990, 72 h
HepG2 = test: Cytotoxicity against human HepG2 cells after 72 hrs by MTT assay; assay type: functional, cell-based; conditions: HepG2, 72 h

IC50 (Escherichia coli): 17 µM
IC50 (Staphylococcus aureus): 17 µM
Compound: C/C1=C\[C@@H](O)C/C(C)=C/CC(=O)/C(C)=C/[C@@H]2[C@H](CC1)C2(C)C
IC50 (SW1990): 37 µM
IC50 (HepG2): 61 µM
